Results taken from patent US20070123492A1, “Analogs of lysophosphatidic acid and methods of making and using thereof” (priority 2003, published 2007).

What was measured:
LPA3 [1] = target: T1, LPA3 (Homo sapiens, UniProt Q9UBY5); test: Potency on the LPA3 receptor; assay type: cell-based; conditions: preliminary data
T1 sequence (Q9UBY5 1-353): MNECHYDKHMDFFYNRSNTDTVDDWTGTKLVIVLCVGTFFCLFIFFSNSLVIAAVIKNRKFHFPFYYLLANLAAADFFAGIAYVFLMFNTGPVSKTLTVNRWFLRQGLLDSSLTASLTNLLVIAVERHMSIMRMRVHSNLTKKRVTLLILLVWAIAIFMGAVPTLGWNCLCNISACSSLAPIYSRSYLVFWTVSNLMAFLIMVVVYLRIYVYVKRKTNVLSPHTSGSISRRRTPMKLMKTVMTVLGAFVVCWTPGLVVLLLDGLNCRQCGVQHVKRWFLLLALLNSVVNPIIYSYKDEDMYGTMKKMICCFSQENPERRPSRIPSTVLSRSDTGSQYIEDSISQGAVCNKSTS

Edg7/LPA3 = Edg7/LPA3 (Homo sapiens, UniProt Q9UBY5); conditions: Edg7/LPA3 as compared to Edg2/LPA1 or Edg4/LPA2; cited from earlier work
LPA3 [2] = target: T1, LPA3; test: Agonist/antagonist activity in insect cells expressing LPA3; assay type: cell-based; set-up: expressed in transfected cells; host or cells: insect cells
platelets = test: Platelet activation by fluorinated LPA analogues; assay type: cell-based; conditions: preliminary results
LPA1 = target: T2, LPA1 (Homo sapiens, UniProt Q92633); test: Agonist/antagonist activity in insect cells expressing LPA1; assay type: cell-based
T2 construct: expressed in transfected cells; host or cells: insect cells

LPA2 = target: T3, LPA2 (Homo sapiens, UniProt Q9HBW0); test: Agonist/antagonist activity in insect cells expressing LPA2; assay type: cell-based
T3 construct: expressed in transfected cells; host or cells: insect cells

(18:1) LPA pain response = test: (18:1) LPA pain response; assay type: in vivo; conditions: preliminary results
LPA receptor = conditions: Xenopus oocytes; cited from earlier work

T3 sequence (Q9HBW0 whole entry, species assumed): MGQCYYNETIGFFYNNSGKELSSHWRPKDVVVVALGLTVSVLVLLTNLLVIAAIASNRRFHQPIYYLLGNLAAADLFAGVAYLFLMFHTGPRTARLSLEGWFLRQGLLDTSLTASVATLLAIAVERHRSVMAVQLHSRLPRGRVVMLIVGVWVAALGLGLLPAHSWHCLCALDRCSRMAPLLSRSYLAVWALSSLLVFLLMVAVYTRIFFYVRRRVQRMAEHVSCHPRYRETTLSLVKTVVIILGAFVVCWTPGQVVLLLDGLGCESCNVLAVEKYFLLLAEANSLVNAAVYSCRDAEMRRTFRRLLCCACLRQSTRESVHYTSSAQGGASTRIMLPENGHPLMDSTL
T2 sequence (Q92633 whole entry, species assumed): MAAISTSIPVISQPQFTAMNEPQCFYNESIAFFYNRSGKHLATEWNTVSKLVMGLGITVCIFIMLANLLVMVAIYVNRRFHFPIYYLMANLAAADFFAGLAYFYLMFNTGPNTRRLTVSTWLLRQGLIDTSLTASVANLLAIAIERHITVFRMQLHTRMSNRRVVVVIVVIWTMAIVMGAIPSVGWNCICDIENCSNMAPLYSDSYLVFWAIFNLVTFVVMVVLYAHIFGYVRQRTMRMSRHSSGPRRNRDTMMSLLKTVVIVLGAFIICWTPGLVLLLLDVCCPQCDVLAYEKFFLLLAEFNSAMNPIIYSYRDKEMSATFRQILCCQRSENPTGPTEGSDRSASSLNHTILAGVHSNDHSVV

For `CCCCCCCC/C=C\CCCCCCCC(=O)O[C@H](CF)COP(=O)(O)O` [Compound 1c, 1-Phospho-2(S)-(oleoyl)-3-fluorine-propane-1,2-diol], the “potency on LPA3 relative to 1a (R)” value (LPA3 [1]; relative to 1a (R)) was “approximately 100 fold” and the “potency relative to natural 18:1 LPA on the LPA3 receptor” value (LPA3 [1]) was “somewhat more potent”.
For `CCCCCCCC/C=C\CCCCCCCC(=O)OC[C@@H](COP(O)(O)=S)OC` [OMPT], the receptor subtype selectivity (Edg7/LPA3) is given as “preferred selectivity for Edg7/LPA3”.
In the case of `CCCCCCCCCCCCCCCC(=O)O[C@H](CF)COP(=O)(O)O` [Compound 1b, 1-Phospho-2(S)-(palmitoyl)-3-fluorine-propane-1,2-diol], the “agonist or antagonist activity” value (LPA3 [2]) is reported as “failed to show either significant agonist or antagonist activity”, the “ability to activate platelets” value (platelets) is reported as “able to activate platelets” and the “agonist or antagonist activity” value (LPA1) is reported as “failed to show either significant agonist or antagonist activity”. For the same molecule, the “agonist or antagonist activity” value (LPA2) was “failed to show either significant agonist or antagonist activity” and the “agonism of the (18:1) LPA pain response” value ((18:1) LPA pain response) was “partial agonists”.
For `CCCCCCCC/C=C\CCCCCCCC(=O)O[C@H](CF)COP(=O)(O)O` [Compound 1a, 1-Phospho-2(S)-(oleoyl)-3-fluorine-propane-1,2-diol], the “agonist or antagonist activity” value (LPA3 [2]) was “failed to show either significant agonist or antagonist activity”, the “ability to activate platelets” value (platelets) was “able to activate platelets” and the “agonist or antagonist activity” value (LPA1) was “failed to show either significant agonist or antagonist activity”. The “agonist or antagonist activity” value (LPA2) was “failed to show either significant agonist or antagonist activity” and the “agonism of the (18:1) LPA pain response” value ((18:1) LPA pain response) was “partial agonists”.
With “[1-Fluoro-3(S)-hydroxyl-4-(oleoyloxy)butyl]phosphonate [Compound 3aa]” the “potency on LPA3 relative to 3ab (R)” value (LPA3 [1]; relative to 3ab (R)) was “approximately 100 fold” and the “potency relative to natural 18:1 LPA on the LPA3 receptor” value (LPA3 [1]) was 1000 fold.
For `CCCCCCCCCCCCCCCC(=O)NC(COP(=O)(O)O)C(=O)O` (centres unmarked) [compound 33], the “antagonism of LPA receptor function” value (LPA receptor) is given as “potent competitive antagonists”.
In the case of `CCCCCCCCCCCCCCCC(=O)NC(Cc1ccc(OP(=O)(O)O)cc1)C(=O)O` (centres unmarked) [compound 34], the “antagonism of LPA receptor function” value (LPA receptor) is listed as “potent competitive antagonists”.
